Laboratory results: patent US10689415B2, “Conjugates of RGD peptides and (bacterio)chlorophyll photosensitizers” (YEDA RESEARCH AND DEVELOPMENT COMPANY LTD., priority 2006, dated 2020)
Where no end group is shown, it is not given here.

Assays:
[1] = test system: tumor grafts of mouse CT26luc colon carcinoma; assay: Biodistribution (Pd by ICP-MS) in mice with CT26luc colon carcinoma grafts; assay type: in vivo, CD1 nude male mice; details: 8 hours post injection
Procedure: Anesthetized mice were i.v. injected (tail vein) with the different photosensitizer (pigment) conjugates (control group: untreated). The mice were sacrificed at indicated time points and samples of the indicated organs and tissues (blood, tumor, intestine, liver, spleen, kidneys, testies, heart, lung, brain, skin, muscle and fat) were placed in pre-weighted vials and immediately frozen and stored at −20° in the dark until analyzed. Three methods were used for sample preparation: (1) Each sample was thawed and homogenized in DDW (1:10 w/v). Aliquots of the homogenate (500 μl) were lyophilized in Eppendorf test tubes. […] Pd concentrations were determined by ICP-MS. According to method (3), the supernatants were diluted in methanol by a factor of two and the drug concentration was determined by fluorescence measurements (Varian-Cary Eclipse spectrofluorimeter, Palo Alto, Calif., USA) at 750 nm (peak values). Drug concentrations were interpolated from a fluorescence calibration curve, based on predetermined drug concentrations using absorption spectroscopy. […]
The conjugates of the invention are potential drug carriers. […] In order to quantify the conjugate levels in target tissues, Ion Coupled Plasma-Mass Spectroscopy (ICP-MS) was used for tracing the central M atom (e.g., Pd, Cu) in the target organ. […]

αvβ5 and αvβ3 integrins = details: read-out: affinity constant; reports by others; cited from earlier work
[2] = Solubilization for in vitro experiments (water solubility); assay type: physicochemical
Procedure: Compound 24 was dissolved in 100% DMSO before use and diluted in saline to a final DMSO concentration of 5% v/v.

[3] = biological target: isolated αvβ3 integrin receptor (Homo sapiens, UniProt P05106+P06756); assay: Solid-phase receptor assay, Eu-RGD-4C binding competed by RGD-4C; details: 100 μM of RGD-4C; highest attenuation
Procedure: The binding of Eu-RGD-4C to isolated αvβ3 integrin receptor was determined using time-resolved fluorometry. Each well of a microtiter plate (Nunc MaxiSorb) was coated with 50 μl of purified receptor (1 μg/ml in PBS) by shaking at 4° C. overnight. The receptor solution was then removed, and each well was blocked with 200 μl of milk (1% w/v milk powder in PBS, 1 hr, room temperature). The plate was then washed with 200 μl of PBS once, and incubated for 1 h at 37° C. with increasing concentrations of RGD-4C in the presence of constant amount of Eu-RGD-4C (10 million F.U./well). The ligand/competitor solution was removed and each well was washed three times with 200 μl PBS. Enhancement solution was added (200 μl/well) to release the chelated Eu. […] Under these experimental conditions, 100 μM of RGD-4C reduced by 50% Eu-RGD-4C binding to the isolated receptor. This value represents the highest attenuation of the Eu-RGD-4C binding, even at RGD-4C highest concentrations.

H5V endothelial cells [4] = assay: Cell detachment (rounding) assay, H5V; assay type: cell-based, mouse
Procedure: (§1) H5V cells were cultured as monolayers in 3-cm dish for 24-48 h, and further incubated for 1 h with 100 μM RGD-4C at 4° C. or 37° C. The cells were washed once and re-incubated for three hours with fresh culture medium at 37° C. In the same fashion, HUVEC were cultured as monolayers in 6-well plate pre-coated with gelatin for 48 h, and incubated for 1 h with 100 μM RGD-4C at 37° C. The cells were washed once and re-incubated for 24 h with fresh culture medium at 37° C. The morphological changes of the cells were documented using light microscopy.
The biological effect of RGD-4C binding was characterized in H5V cells and Human Umbilical Vein Endothelial Cells (HUVEC) using the cell-rounding assay described in Materials and Methods. The morphological changes of the cells were documented using light microscopy. […] This effect was reversible as the cells recovered following 3 h re-incubation with fresh culture medium (8% rounded cells in dishes with previous presence of RGD-4C versus 6% in the absence of RGD-4C).

HUVEC = assay: Cell detachment (rounding) assay, HUVEC; assay type: cell-based, human; details: 100 μM RGD-4C; recovery after 24 h in fresh medium
Procedure: as §1

H5V endothelial cells [5] = assay: Phototoxicity assay (Neutral Red cell viability after illumination); assay type: cell-based, mouse; details: for LD50: Table 3: 10 μM BSA in medium (90 min, 37° C.)
Procedure: The light source for in vitro studies was home-built 100-W halogen lamp equipped with a high-pass filter (>650 nm, Safelight filter 1A Eastman Kodak Co., Rochester, N.Y., USA) and a 4-cm water filter. The lamp was used to illuminate (20 mW/cm^2/10 min (12 J/cm^2)) the culture plates from the bottom at room temperature in a dark room.
To determine the pigment photodynamic efficacy in vitro under standard conditions, cells were cultured in 96-well plates and preincubated for 15 or 90 min at 37° C. or 4° C., according to the indicated experiment protocol, with 0-25 μM conjugated or non-conjugated photosensitizer in different media conditions (culture medium DMEM/F12; 10% FCS in medium or 10 μM BSA in medium) in the absence or presence of excess free peptide (100 fold up to 1 mM). The cells were washed and illuminated (20 mW/cm^2 for 10 min). Plates were placed back in the culture incubator for 24 h. Cell survival was determined using Neutral Red cell viability assay. Cell survival was calculated as the percent of the dye accumulated in the untreated controls. […] Three kinds of controls were used: (i) light control: cells illuminated in the absence of pigments; (ii) dark control: cells treated with pigments but kept in the dark; and (iii) untreated cells that were kept in the dark.
Following photosensitization and a 24-h incubation period (37° C.), cell survival was determined by Neutral Red (Fluka Chemie, Buchs, Switzerland) accumulation. After subtraction of assay blanks, net optical density (570 nm) was computed as the average value of triplicates determinations. Cell survival was calculated as the percent of the dye accumulated in the untreated controls.
H5V cells were incubated for 90 min at 37° C. with 0-25 μM of conjugate 23 or compound 10 in different media conditions, illuminated and their survival was determined using Neutral Red viability assay as described in Materials and Methods.
Targeted phototoxicity is defined as one inhibited by the free ligand. Thus, further experiments attempted to block phototoxicity by administration of the free cycloRGDfK, which competes for the cellular binding of conjugate 23. H5V cells were incubated for 90 min at 37° C. with 0-25 μM of compound 10 or conjugate 23 in different media (10% FCS in medium or 10 μM BSA in medium) in the absence or presence of free excess cycloRGDfK (100-fold up to 1 mM). The cells were illuminated and cell survival was determined using Neutral Red viability assay, as described above.
In order to test the endocytosis theory and since the endocytic process is time- and temperature-dependent, H5V cells were incubated at 37° C. and 4° C. for 15 min with 0-20 μM of conjugate 23 in medium containing 10% FCS, in the presence or absence of excess cycloRGDfK (100-fold up to 1 mM). Cells were illuminated and their survival was determined as described above.
The phototoxicity of conjugate 24 was determined by monitoring the survival of cultured H5V endothelial cells following PDT. H5V cells were incubated for 2 hours at 37° C. with 0-25 μM conjugate 24 in culture medium DMEM/F12 with 10% FCS. The cells were illuminated and their survival was determined as described above.
Cells were incubated for 90 min at 37° C. in the presence of 0-20 μM conjugate 11 or compound 8 in 10 μM BSA in medium, illuminated and their survival was determined as described above.

rat C6 glioma xenografts = assay: Whole-body NIR fluorescence imaging, rat C6 glioma xenografts; assay type: in vivo, CD-1 nude male mice; details: 200 nmol dose, 4 to 72 hours post injection
Source text: The in Vivo Optical Imaging System (IVISR100/XFO-12, Xenogen Corp., Alameda, Calif., USA) was used to acquire fluorescent images of the RFP-expressing tumors, as well as photosensitizers associated with tissues and organs after their intravenous (i.v.) infusion to the tested animals. The field-of-view was 15 cm. Two images were taken; the first image is black and white, providing a photograph of the animal. The second image is a colored overlay of the emitted photon data, in the present case the NIR fluorescence of the compound (680-720 nm excitation filter and a 780-810 nm emission filter) or bioluminescence (560 nm) as described below. […]
Dynamic fluorescence images were acquired immediately following the injection of a conjugate of the invention and continued for approximately 2 hours. Fluorescence images were also obtained under isoflurane anesthesia for up to 72 hr after initial injection of the conjugate. […]
Dynamic fluorescence images were obtained from CD-1 nude male mice bearing rat C6 glioma xenografts. The fluorescence images were acquired using IVIS system as described in Materials and Methods. […]
Specific binding is defined as one inhibited by the unconjugated sensitizer. […] Fluorescence images of the blocked receptor xenografts with the same exposure time are illustrated in FIG. 19 on the same linear color scale to allow for a qualitative comparison. […]

CT26luc colon cancer = assay: In vivo PDT (VTP) of CT26luc colon cancer; design: species or system CD-1 nude male mice; details: i.v. injected and illuminated after 8 hours
Procedure: CD-1 nude male mice bearing the different tumor xenografts were anesthetized and 24 (5-24 mg/kg body weight) or 8 (9 mg/kg body weight) were i.v. injected via the tail vein. The tumors were trans-cutaneously illuminated after 3.5, 6, 8, 12 and 24 hours for 5-30 min at light doses of 30-360 J/cm^2. Intensity of illumination: 100-200 mW/cm^2. After treatment, the mice were returned to the cage. The mice were considered cured if tumor free for 90 days after treatment. Mice were euthanized when the tumor diameter reached 15 mm. […] (5) Mixture of 8 and cycloRGDfK: the mice were i.v. injected with mixture of 8 with cycloRGDfK and illuminated after indicated time point. (6) cycloRGDfK alone: the mice were i.v. injected with cycloRGDfK and illuminated after indicated time point. Images were taken at indicated time post PDT.
FIGS. 32A-32F show the therapeutic results of applying 15 mg/kg, 10 min illumination (60 J/cm^2), 8 hours post injection of conjugate 24 to mice bearing CT26luc tumors (bolded protocol in Table 5). 32A—conjugate 24 was i.v. injected 15 mg/kg, 10 min illumination (60 J/cm^2) 8 hours post injection; 32B—overlaid images taken after i.p. injection of luciferin to the mouse described in 32A, using the IVIS system. The first image is black and white, which gives the photograph of the animal. The second image is color overlay of the emitted photon data. […]

Sequence of isolated αvβ3 integrin receptor (P06756 31-889 limits assumed): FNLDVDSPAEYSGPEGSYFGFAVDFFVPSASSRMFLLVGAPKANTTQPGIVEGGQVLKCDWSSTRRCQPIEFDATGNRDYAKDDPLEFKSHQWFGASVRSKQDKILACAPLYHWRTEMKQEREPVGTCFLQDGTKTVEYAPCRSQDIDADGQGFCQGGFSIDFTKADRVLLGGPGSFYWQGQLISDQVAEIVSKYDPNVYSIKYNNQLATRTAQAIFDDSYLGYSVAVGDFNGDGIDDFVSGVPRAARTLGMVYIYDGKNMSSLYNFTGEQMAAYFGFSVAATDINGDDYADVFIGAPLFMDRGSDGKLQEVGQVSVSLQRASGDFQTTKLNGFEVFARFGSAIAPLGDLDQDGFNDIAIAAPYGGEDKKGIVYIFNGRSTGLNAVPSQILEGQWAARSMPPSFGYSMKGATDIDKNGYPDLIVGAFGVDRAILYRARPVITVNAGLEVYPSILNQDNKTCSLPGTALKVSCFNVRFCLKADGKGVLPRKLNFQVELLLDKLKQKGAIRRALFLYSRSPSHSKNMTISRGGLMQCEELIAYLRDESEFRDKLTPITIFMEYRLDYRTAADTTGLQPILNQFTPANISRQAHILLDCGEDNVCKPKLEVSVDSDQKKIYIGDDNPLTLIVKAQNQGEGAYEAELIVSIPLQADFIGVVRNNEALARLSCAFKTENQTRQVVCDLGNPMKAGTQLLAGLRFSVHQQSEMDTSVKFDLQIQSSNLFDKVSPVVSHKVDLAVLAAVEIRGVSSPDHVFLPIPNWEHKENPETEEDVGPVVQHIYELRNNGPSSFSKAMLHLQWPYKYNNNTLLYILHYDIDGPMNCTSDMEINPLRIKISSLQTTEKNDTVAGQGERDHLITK
Sequence of isolated αvβ3 integrin receptor (P06756 891-1048 limits assumed): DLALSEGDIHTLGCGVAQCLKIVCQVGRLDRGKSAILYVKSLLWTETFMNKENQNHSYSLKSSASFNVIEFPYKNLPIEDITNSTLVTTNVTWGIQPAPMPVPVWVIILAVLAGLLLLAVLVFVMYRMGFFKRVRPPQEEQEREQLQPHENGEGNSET
Sequence of isolated αvβ3 integrin receptor (P05106 27-788): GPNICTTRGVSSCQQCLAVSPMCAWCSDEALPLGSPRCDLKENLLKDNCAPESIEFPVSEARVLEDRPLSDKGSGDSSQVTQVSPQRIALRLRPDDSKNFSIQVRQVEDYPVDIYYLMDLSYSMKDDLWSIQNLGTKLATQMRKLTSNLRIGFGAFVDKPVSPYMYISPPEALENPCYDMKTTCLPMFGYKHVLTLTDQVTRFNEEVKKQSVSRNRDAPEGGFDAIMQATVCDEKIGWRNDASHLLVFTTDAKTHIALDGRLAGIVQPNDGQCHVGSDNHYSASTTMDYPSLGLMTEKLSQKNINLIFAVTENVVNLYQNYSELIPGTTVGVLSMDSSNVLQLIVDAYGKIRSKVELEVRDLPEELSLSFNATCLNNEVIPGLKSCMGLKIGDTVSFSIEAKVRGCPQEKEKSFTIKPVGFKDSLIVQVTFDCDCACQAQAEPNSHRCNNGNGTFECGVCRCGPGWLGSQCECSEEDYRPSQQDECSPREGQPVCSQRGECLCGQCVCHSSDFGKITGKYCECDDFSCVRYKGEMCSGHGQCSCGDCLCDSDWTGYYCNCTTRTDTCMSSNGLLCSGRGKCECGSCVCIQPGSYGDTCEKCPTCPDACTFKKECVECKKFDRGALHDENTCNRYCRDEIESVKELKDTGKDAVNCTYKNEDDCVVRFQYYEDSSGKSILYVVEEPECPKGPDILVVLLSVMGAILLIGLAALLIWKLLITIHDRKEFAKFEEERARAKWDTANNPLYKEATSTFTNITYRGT

| Substance | concentrations in the tumor tissue and blood [1] | Kd (αvβ5 and αvβ3 integrins) | water solubility [2] | reduction of Eu-RGD-4C binding to the isolated receptor [3] | rounded cells (cell detachment from the dish) (H5V endothelial cells [4]; 100 μM RGD-4C, n=200) | rounded cells after 3 h re-incubation with fresh culture medium (H5V endothelial cells [4]; previous presence of RGD-4C, 37° C.) | HUVEC detachment (HUVEC) | phototoxic effects (H5V endothelial cells [5]; 90 min, 37° C., 10 μM BSA in medium, 0-20 μM) | LD50 (H5V endothelial cells [5]) | LD50 (H5V endothelial cells [5]; with free peptide excess (RGD-4C 1 mM)) | whole-body fluorescence distribution (rat C6 glioma xenografts) | PDT effect of controls (CT26luc colon cancer) |
| --- | --- | --- | --- | --- | --- | --- | --- | --- | --- | --- | --- | --- |
| Palladium 3^1-oxo-15-methoxycarbonylmethyl-Rhodobacteriochlorin 13^1-(2-sulfoethyl)amide-17^3-(cycloRADfK)amide potassium salt [Conjugate 42] | quite the same |  |  |  |  |  |  |  |  |  |  |  |
| the cyclic nonapeptide CDCRGDCFC-NH2 (disulfide (positions not given here)) [RGD-4C] |  | ~100 nM | Water insoluble | 50% | 99% | 8% | induced HUVEC detachment from the dish in a reversible manner |  |  |  |  |  |
| Palladium 3^1-oxo-15-methoxycarbonylmethyl-Rhodobacteriochlorin 13^1-(2-sulfoethyl)amide potassium salt [Compound 8, reference compound] |  |  | Water-soluble |  |  |  |  | light- and drug concentration-dependent | 1.8 to 2 µM | 2 µM | no specific signal could be seen | no PDT effect |
